Results on 14 compounds are retold here after patent US20110028447A1, “INDAZOLE DERIVATIVES” (Pfizer Inc., priority 2008, published 2011).

Assay [1] deals with T1, human CB1 receptor (Homo sapiens, UniProt P21554). Description: [35S] GTPγS binding on membranes of CHO cells expressing the human CB1 receptor (agonism). In kind it is biochemical. Also noted: expressed in transfected cells; membrane preparation. The gist of the method: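 Membranes from human CB1-expressing CHO cells (5 μg/well) incubated with test compound and [35S]GTPγS in 50 mM Tris pH 7.4, 100 mM NaCl, 3 mM MgCl2, 0.2 mM EGTA, 0.04% BSA for 45 min at 37 °C. Bound label collected by filtration, scintillation counted; EC50 from curve fits.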
(Binding of GTPγS marks nucleotide exchange on a G protein.)

Assay [2] addresses T1, human CB1 receptor. In words: Human CB1 receptor binding, [3H] CP-55,940 displacement on HEK cell membranes. More on the design: expressed in transfected cells; host or cells: HEK cells, doxycycline-induced; membrane preparation. Summed up:
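Radioligand displacement: [3H] CP-55,940 at […] final, 1 μg membrane protein per well from HEK cells with tetracycline-inducible human CB1, 60 min at room temperature, pH 7.4 Tris/NaCl/MgCl2/EGTA/BSA buffer. 50 μM WIN-55,212-2 set nonspecific binding; bound label filtered, counted, and fitted for EC50 and Ki values.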

Where [3] appears, read: GTPγS EC50, human CB1, CHO cell membranes.
The mark [4] stands for this setting: human CB1, CHO cell membranes, read-out: GTPγS EC50.

Like-named read-outs stand apart in the source and are kept apart here.

T1 sequence (P21554 whole entry): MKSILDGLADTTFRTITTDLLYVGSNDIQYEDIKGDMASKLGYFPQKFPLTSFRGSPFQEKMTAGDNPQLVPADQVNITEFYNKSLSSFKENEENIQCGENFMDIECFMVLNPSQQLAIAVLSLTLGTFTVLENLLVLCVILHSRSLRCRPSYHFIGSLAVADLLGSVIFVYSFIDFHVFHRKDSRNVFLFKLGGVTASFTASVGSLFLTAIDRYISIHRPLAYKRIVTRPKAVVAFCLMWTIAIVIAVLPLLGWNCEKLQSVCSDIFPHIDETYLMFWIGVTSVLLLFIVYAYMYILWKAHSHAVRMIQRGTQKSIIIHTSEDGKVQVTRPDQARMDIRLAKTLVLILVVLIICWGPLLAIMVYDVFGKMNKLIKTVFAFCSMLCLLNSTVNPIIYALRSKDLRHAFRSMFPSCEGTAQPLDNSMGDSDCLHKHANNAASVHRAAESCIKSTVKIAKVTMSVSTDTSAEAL

In general, EC50 refers to the concentration giving half of the maximal effect. By Ki is commonly meant the dissociation constant of the complex between target and ligand, obtained from inhibition or displacement. `CC(C)(C)C(NC(=O)c1nn(Cc2ccc(F)cc2)c2ccccc12)C(=O)NCCO` (stereo not shown) [Example 81] returned an EC50 on human CB1 receptor [1] (setting [3]) of 0.98 nM. The same compound displayed a Ki at human CB1 receptor [2] (CB1 Ki) of 0.32 nM.

As for `CC(C)(O)C1CCN(C(=O)[C@@H](NC(=O)c2nn(Cc3ccc(F)cc3)c3ccccc23)C(C)(C)C)CC1` [Example 338], the EC50 on human CB1 receptor [1] (setting [4]) worked out at 24.9 nM. Besides, the Ki on human CB1 receptor [2] (read-out: CB1 Ki) came to 3.43 nM.

Turning to `CC(C)(C)[C@H](NC(=O)c1nn(Cc2ccccn2)c2ccccc12)C(N)=O` [Example 6, N-[(1S)-1-(aminocarbonyl)-2,2-dimethylpropyl]-1-(pyridin-2-ylmethyl)-1H-indazole-3-carboxamide], at human CB1 receptor [1] (setting [3]), the response was half-maximal at 160 nM (EC50). For the same compound, the Ki on human CB1 receptor [2] (CB1 Ki) was 12.6 nM.

As for `CC(C)(C)[C@H](NC(=O)c1nn(Cc2ccc(C#N)cc2)c2ccccc12)C(=O)N1CCOCC1` [Example 243], at human CB1 receptor [1] (setting [3]), the EC50 was 91.3 nM. Also, the Ki at human CB1 receptor [2] (CB1 Ki) was found to be 11.3 nM.

For the compound `CC(C)(C)C(NC(=O)c1nn(Cc2ccc(F)cc2)c2ccccc12)c1nnc(NC(N)=O)o1` (stereo not shown) [Example 118], the EC50 at human CB1 receptor [1] (setting [4]) worked out at 23.8 nM. For the same compound, the Ki at human CB1 receptor [2] (read-out: CB1 Ki) worked out at 0.7 nM.

Regarding `CC(C)(C)C(NC(=O)c1nn(Cc2ccc(C#N)cc2)c2c(Cl)cccc12)C(=O)NCC(N)=O` (stereo not shown) [Example 201], the EC50 on human CB1 receptor [1] (setting [3]) came out at 70.1 nM. The same compound had a Ki on human CB1 receptor [2] (CB1 Ki) of 14.2 nM.

In the case of `CC(C)(C)[C@H](NC(=O)c1nn(Cc2ccc(F)cc2)c2ccccc12)C(=O)NCCc1n[nH]c(=O)[nH]1` [Example 506], at human CB1 receptor [1] (setting [4]), the EC50 was determined as 8.97 nM. In addition, the Ki at human CB1 receptor [2] (read-out: CB1 Ki) was 1.3 nM.

As to `CC(C)(C)[C@H](NC(=O)c1nn(Cc2ccc(F)cc2)c2ccccc12)C(=O)NCC#N` [Example 270], a half-maximal effect at human CB1 receptor [1] (setting [3]) (EC50) was put at 2.62 nM. Besides, affinity on human CB1 receptor [2] (CB1 Ki) was put at a Ki of 0.76 nM.

Regarding `CC(C)(C)[C@H](NC(=O)c1nn(Cc2ccc(F)cc2)c2ccccc12)C(=O)N1CCN(CC(O)CO)CC1` (stereo partly shown) [Example 233], at human CB1 receptor [1] (setting [4]), the EC50 is 11.5 nM. Also, at human CB1 receptor [2] (read-out: CB1 Ki), the Ki is 2.45 nM.

For the compound `CC(C)(C)[C@H](NC(=O)c1nn(Cc2ccc(F)cc2)c2ccccc12)C(=O)NCc1cc(C2CC2)[nH]n1` [Example 422], the EC50 on human CB1 receptor [1] (setting [4]) came out at 19.6 nM. Besides, the Ki on human CB1 receptor [2] (read-out: CB1 Ki) came out at 4.67 nM.

With `CC(C)(C)C(NC(=O)c1nn(Cc2ccc(C#N)cc2)c2ccccc12)C(=O)N1CCC(O)CC1` (stereo not shown) [Example 134], the EC50 at human CB1 receptor [1] (setting [3]) came out at 326 nM. This compound had a Ki at human CB1 receptor [2] (CB1 Ki) of 32.7 nM.

The compound `Cc1cc(CNC(=O)c2nn(Cc3ccc(C#N)cc3)c3ccccc23)c(C)o1` [Example 68] registered an EC50 at human CB1 receptor [1] (setting [3]) of 90.1 nM. For the same compound, the Ki on human CB1 receptor [2] (CB1 Ki) was 4.61 nM.

As to `CC(C)(C)C(NC(=O)c1nn(Cc2ccccc2)c2ccccc12)C(N)=O` (stereo not shown) [Example 27], the response at human CB1 receptor [1] (setting [3]) was half-maximal at 14.7 nM (EC50). For the same compound, the Ki on human CB1 receptor [2] (CB1 Ki) is 0.33 nM.

`CC(C)(C)[C@H](NC(=O)c1nn(Cc2ccc(C#N)cc2F)c2ccccc12)C(=O)NCCNS(=O)(=O)c1ccc(C#N)cc1` [Example 265]: the EC50 on human CB1 receptor [1] (setting [4]) amounted to 82 nM. Further, the Ki at human CB1 receptor [2] (read-out: CB1 Ki) worked out at 13.1 nM.
